Laboratory results from ChEMBL document CHEMBL1909046, “DrugMatrix in vitro pharmacology data”.

Legend:
[1] = biological target: Beta-1 adrenergic receptor (Homo sapiens, UniProt P08588); experiment: DRUGMATRIX: Adrenergic beta1 radioligand binding (ligand: [125I] Cyanopindolol); type: cell membranes, CHO-K1, Membrane; conditions: cho-k1; Not Active = under 50% inhibition at 10 µM
[2] = DRUGMATRIX: Tumor Necrosis Factor (TNF), Non-Selective radioligand binding (ligand: [125I] TNF-alpha); type: cell membranes, Membrane; conditions: u-937; Not Active = under 50% inhibition at 10 µM
[3] = biological target: T1, C-X-C chemokine receptor type 2 (Homo sapiens, UniProt P25025); type: cell membranes, Membrane; conditions: cho-k1; further: in other assays of this panel Not Active means under 50% inhibition at 10 µM
T1 sequence (P25025 whole entry): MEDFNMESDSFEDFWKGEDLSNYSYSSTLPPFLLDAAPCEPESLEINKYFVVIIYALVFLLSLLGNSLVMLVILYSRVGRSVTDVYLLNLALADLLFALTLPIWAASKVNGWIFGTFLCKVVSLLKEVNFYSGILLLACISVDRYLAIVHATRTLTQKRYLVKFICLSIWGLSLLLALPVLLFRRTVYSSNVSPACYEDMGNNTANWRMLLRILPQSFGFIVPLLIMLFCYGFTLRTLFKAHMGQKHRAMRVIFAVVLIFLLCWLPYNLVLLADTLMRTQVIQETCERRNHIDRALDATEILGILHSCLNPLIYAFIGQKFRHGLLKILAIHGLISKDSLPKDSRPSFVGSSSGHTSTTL

[4] = biological target: T2, Cholecystokinin receptor type A (Homo sapiens, UniProt P32238); type: cell membranes, Membrane; conditions: 1321-n1; further: in other assays of this panel Not Active means under 50% inhibition at 10 µM
T2 sequence (P32238 whole entry): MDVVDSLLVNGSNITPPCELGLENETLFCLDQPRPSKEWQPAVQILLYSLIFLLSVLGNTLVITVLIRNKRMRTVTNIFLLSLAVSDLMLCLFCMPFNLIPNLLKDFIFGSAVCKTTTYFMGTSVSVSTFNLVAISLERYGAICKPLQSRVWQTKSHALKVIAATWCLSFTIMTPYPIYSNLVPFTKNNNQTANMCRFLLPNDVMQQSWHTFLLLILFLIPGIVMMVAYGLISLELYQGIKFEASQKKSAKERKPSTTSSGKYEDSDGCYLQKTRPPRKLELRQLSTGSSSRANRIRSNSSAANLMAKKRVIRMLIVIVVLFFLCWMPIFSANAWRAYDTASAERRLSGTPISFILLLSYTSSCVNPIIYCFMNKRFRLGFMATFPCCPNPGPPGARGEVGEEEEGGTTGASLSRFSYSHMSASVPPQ

D(3) dopamine receptor = D(3) dopamine receptor (Homo sapiens, UniProt P35462); experiment: DRUGMATRIX: Dopamine D3 radioligand binding (ligand: [3H] Spiperone); type: cell membranes, CHO, Membrane; conditions: cho
[5] = biological target: T3, Muscarinic acetylcholine receptor M2 (Homo sapiens, UniProt P08172); type: cell membranes, CHO-K1, Membrane; conditions: cho-k1; further: in other assays of this panel Not Active means under 50% inhibition at 10 µM
T3 sequence (P08172 whole entry): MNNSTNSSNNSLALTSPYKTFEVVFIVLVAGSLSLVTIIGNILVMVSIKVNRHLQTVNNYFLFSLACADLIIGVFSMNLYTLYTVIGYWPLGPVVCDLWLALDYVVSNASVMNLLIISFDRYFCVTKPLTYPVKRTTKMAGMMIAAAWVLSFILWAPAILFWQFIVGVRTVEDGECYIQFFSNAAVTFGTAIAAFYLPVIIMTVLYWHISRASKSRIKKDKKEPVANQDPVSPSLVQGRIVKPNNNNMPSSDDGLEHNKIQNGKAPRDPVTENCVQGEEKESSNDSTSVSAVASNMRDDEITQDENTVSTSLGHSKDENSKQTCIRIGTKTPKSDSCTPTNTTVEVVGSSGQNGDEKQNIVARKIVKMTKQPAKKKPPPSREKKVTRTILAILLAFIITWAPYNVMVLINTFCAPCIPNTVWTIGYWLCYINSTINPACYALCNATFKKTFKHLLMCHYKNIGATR

[6] = biological target: T4, Nitric oxide synthase, inducible (Mus musculus, UniProt P29477); design: species or system Escherichia coli;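 further: inhibition of iNOS enzyme activity measured with L-arginine as substrate; in other assays of this panel Not Active means under 50% inhibition at 10 µM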
T4 sequence (P29477 whole entry): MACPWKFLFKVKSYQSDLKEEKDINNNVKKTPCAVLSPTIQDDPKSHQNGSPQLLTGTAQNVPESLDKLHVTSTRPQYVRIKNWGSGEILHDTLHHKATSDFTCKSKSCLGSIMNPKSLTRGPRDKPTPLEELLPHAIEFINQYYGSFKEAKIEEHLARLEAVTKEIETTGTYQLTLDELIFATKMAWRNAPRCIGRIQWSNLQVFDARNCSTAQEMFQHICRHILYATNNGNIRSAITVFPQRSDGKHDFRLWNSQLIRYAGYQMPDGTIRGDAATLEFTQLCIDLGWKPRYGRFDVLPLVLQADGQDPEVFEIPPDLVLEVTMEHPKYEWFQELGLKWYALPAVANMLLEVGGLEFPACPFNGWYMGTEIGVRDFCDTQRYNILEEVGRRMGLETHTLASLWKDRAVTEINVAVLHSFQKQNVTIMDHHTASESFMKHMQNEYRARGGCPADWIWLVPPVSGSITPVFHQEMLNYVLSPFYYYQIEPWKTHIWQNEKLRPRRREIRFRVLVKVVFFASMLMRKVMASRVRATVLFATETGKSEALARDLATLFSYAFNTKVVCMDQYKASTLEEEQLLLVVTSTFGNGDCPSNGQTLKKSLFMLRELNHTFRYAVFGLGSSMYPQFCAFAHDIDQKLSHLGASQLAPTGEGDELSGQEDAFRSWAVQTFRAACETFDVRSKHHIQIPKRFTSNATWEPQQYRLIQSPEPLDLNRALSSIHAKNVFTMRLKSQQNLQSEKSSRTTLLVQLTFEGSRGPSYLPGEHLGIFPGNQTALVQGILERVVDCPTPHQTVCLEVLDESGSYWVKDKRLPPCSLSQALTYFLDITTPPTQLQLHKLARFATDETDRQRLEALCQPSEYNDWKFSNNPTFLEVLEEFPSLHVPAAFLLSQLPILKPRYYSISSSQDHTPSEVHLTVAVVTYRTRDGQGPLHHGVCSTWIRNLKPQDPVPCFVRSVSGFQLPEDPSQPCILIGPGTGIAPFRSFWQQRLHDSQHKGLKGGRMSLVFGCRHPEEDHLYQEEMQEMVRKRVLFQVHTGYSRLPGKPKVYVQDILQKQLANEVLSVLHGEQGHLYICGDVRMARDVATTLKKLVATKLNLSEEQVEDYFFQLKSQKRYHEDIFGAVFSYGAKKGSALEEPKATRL

[7] = DRUGMATRIX: Phosphodiesterase PDE4 enzyme inhibition (substrate: [3H]cAMP + cAMP); conditions: u-937; Not Active = under 50% inhibition at 10 µM
[8] = biological target: Tyrosine-protein kinase Fyn (Homo sapiens, UniProt P06241); experiment: biochemical; type: cell-based, Insect cells; conditions: insect cells
[9] = biological target: Tyrosine-protein kinase Lck (Homo sapiens, UniProt P06239); experiment: DRUGMATRIX: Protein Tyrosine Kinase, LCK enzyme inhibition (substrate: Poly(Glu:Tyr)); type: cell-based, Insect cells; conditions: insect cells; Not Active = under 50% inhibition at 10 µM
Sequence of Tyrosine-protein kinase Lck (P06239 whole entry): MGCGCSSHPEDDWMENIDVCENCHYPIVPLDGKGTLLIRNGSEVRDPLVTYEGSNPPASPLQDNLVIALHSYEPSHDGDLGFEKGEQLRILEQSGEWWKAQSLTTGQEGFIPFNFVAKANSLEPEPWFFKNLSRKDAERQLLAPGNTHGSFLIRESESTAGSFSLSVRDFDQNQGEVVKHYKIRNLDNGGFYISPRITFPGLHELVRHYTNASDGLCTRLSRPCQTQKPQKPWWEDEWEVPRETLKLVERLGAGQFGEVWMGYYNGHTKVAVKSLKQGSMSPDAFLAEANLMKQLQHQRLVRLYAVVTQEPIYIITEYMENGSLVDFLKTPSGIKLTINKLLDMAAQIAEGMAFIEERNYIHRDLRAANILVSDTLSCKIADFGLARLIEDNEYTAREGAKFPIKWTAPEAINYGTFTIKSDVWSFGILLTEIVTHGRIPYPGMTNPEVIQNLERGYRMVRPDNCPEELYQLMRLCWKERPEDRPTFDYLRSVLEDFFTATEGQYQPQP

Sequence of Tyrosine-protein kinase Fyn (P06241 whole entry): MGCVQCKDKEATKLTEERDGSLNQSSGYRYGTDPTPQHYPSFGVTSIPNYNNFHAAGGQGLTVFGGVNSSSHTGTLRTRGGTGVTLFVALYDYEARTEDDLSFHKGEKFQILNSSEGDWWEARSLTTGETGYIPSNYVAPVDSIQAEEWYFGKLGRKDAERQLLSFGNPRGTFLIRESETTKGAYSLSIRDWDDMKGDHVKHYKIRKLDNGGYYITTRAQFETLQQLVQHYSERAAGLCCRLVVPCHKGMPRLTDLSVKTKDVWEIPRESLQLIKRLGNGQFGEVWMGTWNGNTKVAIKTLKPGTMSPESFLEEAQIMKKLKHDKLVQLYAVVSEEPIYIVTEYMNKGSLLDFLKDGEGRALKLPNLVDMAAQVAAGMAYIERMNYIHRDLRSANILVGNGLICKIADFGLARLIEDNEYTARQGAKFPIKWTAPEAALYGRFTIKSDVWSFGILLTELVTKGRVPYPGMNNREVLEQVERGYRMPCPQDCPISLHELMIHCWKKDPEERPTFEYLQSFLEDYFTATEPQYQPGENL
Sequence of Beta-1 adrenergic receptor (P08588 whole entry): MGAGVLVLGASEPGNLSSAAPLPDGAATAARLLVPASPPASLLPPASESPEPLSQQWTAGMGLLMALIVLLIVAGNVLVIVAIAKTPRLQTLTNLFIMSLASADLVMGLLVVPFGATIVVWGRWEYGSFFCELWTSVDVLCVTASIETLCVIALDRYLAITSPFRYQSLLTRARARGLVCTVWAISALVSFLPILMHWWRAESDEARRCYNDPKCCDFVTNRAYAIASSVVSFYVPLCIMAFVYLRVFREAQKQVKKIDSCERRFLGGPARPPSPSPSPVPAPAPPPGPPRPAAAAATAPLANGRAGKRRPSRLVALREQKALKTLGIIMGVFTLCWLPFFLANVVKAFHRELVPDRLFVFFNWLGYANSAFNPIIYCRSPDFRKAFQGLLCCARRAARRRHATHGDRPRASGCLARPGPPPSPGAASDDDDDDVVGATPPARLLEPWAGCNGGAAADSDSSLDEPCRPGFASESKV
Sequence of D(3) dopamine receptor (P35462 whole entry): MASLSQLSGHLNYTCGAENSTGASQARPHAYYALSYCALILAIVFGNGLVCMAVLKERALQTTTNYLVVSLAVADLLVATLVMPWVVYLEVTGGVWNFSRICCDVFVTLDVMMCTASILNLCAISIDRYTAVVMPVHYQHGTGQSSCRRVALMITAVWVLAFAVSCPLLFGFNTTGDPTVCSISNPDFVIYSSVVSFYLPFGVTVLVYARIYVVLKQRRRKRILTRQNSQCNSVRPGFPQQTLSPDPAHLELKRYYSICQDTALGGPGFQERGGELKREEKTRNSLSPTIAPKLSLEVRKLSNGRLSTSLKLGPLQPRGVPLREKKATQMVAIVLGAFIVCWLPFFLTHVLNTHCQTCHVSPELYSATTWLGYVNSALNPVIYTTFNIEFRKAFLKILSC

C[C@]12Cc3c[nH]nc3C[C@@H]1CC[C@@H]1[C@@H]2CC[C@@]2(C)[C@H]1CC[C@]2(C)O [STANOZOLOL]
Not Active: IC50 [1] | IC50 [2] | Ki [2] | IC50 [3] | IC50 [4] | IC50 (D(3) dopamine receptor) | IC50 [5] | IC50 [6] | IC50 [7] | Ki [7] | IC50 [8] | IC50 [9]

CN(N=O)C(=O)N[C@@H](C=O)[C@@H](O)[C@H](O)[C@H](O)CO [STREPTOZOCIN]
Not Active: IC50 [1] | IC50 [2] | Ki [2] | IC50 [3] | IC50 [4] | IC50 (D(3) dopamine receptor) | IC50 [5] | IC50 [6] | IC50 [7] | Ki [7] | IC50 [8] | IC50 [9]

Cc1cc(NS(=O)(=O)c2ccc(N)cc2)no1 [SULFAMETHOXAZOLE]
Not Active: IC50 [1] | IC50 [2] | Ki [2] | IC50 [3] | IC50 [4] | IC50 (D(3) dopamine receptor) | IC50 [5] | IC50 [6] | IC50 [7] | Ki [7] | IC50 [8] | IC50 [9]

Nc1ccc(S(N)(=O)=O)cc1 [SULFANILAMIDE]
Not Active: IC50 [1] | IC50 [2] | Ki [2] | IC50 [3] | IC50 [4] | IC50 (D(3) dopamine receptor) | IC50 [5] | IC50 [6] | IC50 [7] | Ki [7] | IC50 [8] | IC50 [9]

Nc1ccc(S(=O)(=O)Nc2ccnn2-c2ccccc2)cc1 [SULFAPHENAZOLE]
Not Active: IC50 [1] | IC50 [2] | Ki [2] | IC50 [3] | IC50 [4] | IC50 (D(3) dopamine receptor) | IC50 [5] | IC50 [6] | IC50 [7] | Ki [7] | IC50 [8] | IC50 [9]

C=CC[C@@H]1/C=C(\C)C[C@H](C)C[C@H](OC)[C@H]2O[C@@](O)(C(=O)C(=O)N3CCCC[C@H]3C(=O)O[C@H](/C(C)=C/[C@@H]3CC[C@@H](O)[C@H](OC)C3)[C@H](C)[C@@H](O)CC1=O)[C@H](C)C[C@@H]2OC [TACROLIMUS ANHYDROUS]
Not Active: IC50 [1] | IC50 [2] | Ki [2] | IC50 [3] | IC50 [4] | IC50 (D(3) dopamine receptor) | IC50 [5] | IC50 [6] | IC50 [7] | Ki [7] | IC50 [8] | IC50 [9]

CC1CN(c2cc3c(cc2F)c(=O)c(C(=O)O)cn3-c2ccc(F)cc2F)CCN1 (stereo unspecified) [TEMAFLOXACIN]
Not Active: IC50 [1] | IC50 [2] | Ki [2] | IC50 [3] | IC50 [4] | IC50 (D(3) dopamine receptor) | IC50 [5] | IC50 [6] | IC50 [7] | Ki [7] | IC50 [8] | IC50 [9]

CN(C)[C@@H]1C(O)=C(C(N)=O)C(=O)[C@@]2(O)C(O)=C3C(=O)c4c(O)cccc4[C@@](C)(O)[C@H]3C[C@@H]12 [TETRACYCLINE]
Not Active: IC50 [1] | IC50 [2] | Ki [2] | IC50 [3] | IC50 [4] | IC50 (D(3) dopamine receptor) | IC50 [5] | IC50 [6] | IC50 [7] | Ki [7] | IC50 [8] | IC50 [9]
